# Assay results published in patent US12172983B2, “EGFR inhibitors” (Blueprint Medicines Corporation, priority 2019, dated 2024).
# Read-outs that look alike come from different tables or passages of the source.
# Key:
# [1] = test system: phosphorylation of EGFR (Tyr1068) in NCI-H1975 cell line that harbors the EGFR L858R T790M mutations; experiment: NCI-H1975 pEGFR AlphaLISA assay; assay type: cell-based; conditions: 4-5 hours incubation, read-out: Ext pEGFR H1975
# Description: Inhibitory effects of the compounds of the disclosure were evaluated in cellular assays that measure level of intracellular phosphorylation of EGFR in NCI-H1975 cell line that harbors the EGFR L858R T790M mutations (ATCC, CRL-5908) using AlphaLISA sureFire ultra p-EGFR (Tyr1068) assay kit (PerkinElmer, ALSU-PEGFR-A50K). The NCI-H1975 cells were seeded at 12.5K/well in 22 μL into 384 well opti plate (PerkinElmer, 6007299) and adhering overnight at 37 C/5% CO2. On the next day, the test compounds and DMSO control were added into H1975 cell plate followed by incubation at 37 C/5% CO2 for 4-5 hours. The cells were then spin down in the 384-well plate and lysed with 10 μL of 1×AlphaLISA lysis buffer followed by shaking at 600 rpm for 10 minutes at room temperature. After that, 5 μL of an acceptor bead mix was added to each well followed by incubation at room temperature for 1.5-2 h in dark. Then 5 μL of a donor bead mix was added to each well followed by overnight incubation at room temperature in dark. On the next day, the plate was read at a compatible plate reader to obtain pEGFR signal. Percent of pEGFR inhibition was plotted against log concentration of compounds to generate IC50 values.
# [2] = target: T1, EGFR (L858R T790M C797S) (Homo sapiens, UniProt P00533, C797S/L858R/T790M); experiment: Biochemical EGFR inhibition assay (Caliper mobility shift), EGFR LRTMCS mutant; conditions: inhibitory activity against EGFR LRTMCS mutant; apparent IC50; read-out: Ext Enz LRTMCS
# T1 construct: purchased SignalChem E10-122VG
# Description: Reactions proceeded until between 10% to 20% total peptides were phosphorylated at room temperature (25° C.) and were terminated with 35 mM 2,2′,2″,2′″-(ethane-1,2-diyldinitrilo)tetraacetic acid (EDTA). Product was detected using the Caliper mobility shift detection method where the phosphorylated peptide (product) and substrate were electrophoretically separated and measured. Percent activity was plotted against log concentration of compound and points to generate an apparent IC50.
# [3] = Homo sapiens, NCI-H1975, inhibition of phosphorylation of mutant EGFR in NCI-H1975 cells
# [4] = inhibition of phosphorylation of mutant EGFR in NCI-H1975 cells
Molecule,"IC50 [1, 3]",IC50 [2],"IC50 [1, 4]"
"CCS(=O)(=O)C[C@H]1CN(c2nnc(C(C)C)c3cc(Nc4ccnc(N5CC[C@H](OC)[C@H](F)C5)n4)ncc23)[C@@H]1C [Compound 207, N-{4-[(2R,3S)-3-[(ethanesulfonyl)methyl]-2-methylazetidin-1-yl]-1-(propan-2-yl)pyrido[3,4-d]pyridazin-7-yl}-2-[(3R,4S)-3-fluoro-4-methoxypiperidin-1-yl]pyrimidin-4-amine]",10.1 to 20 nM,≤ 15 nM,–
"CC(C)c1ccc(N2C[C@H](CS(C)(=O)=O)[C@H]2C)c2cnc(Nc3ccnc(N4CC[C@@H](F)[C@@H](O)C4)n3)cc12 (single isomer, unassigned) [Compound 269, (3S,4R)-4-fluoro-1-[4-({8-[(2R,3S)-3-(methanesulfonylmethyl)-2-methylazetidin-1-yl]-5-(propan-2-yl)isoquinolin-3-yl}amino)pyrimidin-2-yl]piperidin-3-ol or (3R,4S)-4-fluoro-1-[4-({8-[(2R,3S)-3-(methanesulfonylmethyl)-2-methylazetidin-1-yl]-5-(propan-2-yl)isoquinolin-3-yl}amino)pyrimidin-2-yl]piperidin-3-ol]",≤ 10 nM,≤ 15 nM,–
"CO[C@@H]1CCN(c2nccc(Nc3cc4c(C(C)C)nnc(N5C[C@H](CS(C)(=O)=O)[C@H]5C)c4cn3)n2)C[C@@H]1F [Compound 150, N-(2-((3S,4R)-3-fluoro-4-methoxypiperidin-1-yl)pyrimidin-4-yl)-1-isopropyl-4-((2R,3S)-2-methyl-3-(methylsulfonylmethyl)azetidin-1-yl)pyrido[4,3-d]pyridazin-7-amine]",20.1 to 30 nM,≤ 15 nM,–
"CC(C)c1ccc(N2C[C@@H](CS(C)(=O)=O)[C@H]2C)c2cnc(Nc3ccnc(N4CC[C@](C)(O)[C@H](F)C4)n3)cc12 (single isomer, unassigned) [Compound 121]",≤ 10 nM,15.1 to 20 nM,–
"CC(C)c1ccc(N2C[C@H](CS(C)(=O)=O)[C@H]2C)c2cnc(Nc3ccnc(N4CC[C@](C)(O)C(F)(F)C4)n3)cc12 (single isomer, unassigned) [Compound 210, (4S)-3,3-difluoro-1-[4-({8-[(2R,3S)-3-(methanesulfonylmethyl)-2-methylazetidin-1-yl]-5-(propan-2-yl)isoquinolin-3-yl}amino)pyrimidin-2-yl]-4-methylpiperidin-4-ol or (4R)-3,3-difluoro-1-[4-({8-[(2R,3S)-3-(methanesulfonylmethyl)-2-methylazetidin-1-yl]-5-(propan-2-yl)isoquinolin-3-yl}amino)pyrimidin-2-yl]-4-methylpiperidin-4-ol]",10.1 to 20 nM,20.1 to 30 nM,–
"CO[C@H]1CCN(c2nccc(Nc3cc4c(C(C)C)ccc(N5C[C@H](CS(C)(=O)=O)[C@H]5C)c4cn3)n2)C[C@H]1C#N (single isomer, unassigned) [Compound 165, (3R,4R)-1-[4-({8-[(2R,3S)-3-(methanesulfonylmethyl)-2-methylazetidin-1-yl]-5-(propan-2-yl)isoquinolin-3-yl}amino)pyrimidin-2-yl-4-methoxypiperidine-3-carbonitrile or (3S,4S)-1-[4-({8-[(2R,3S)-3-(methanesulfonylmethyl)-2-methylazetidin-1-yl]-5-(propan-2-yl)isoquinolin-3-yl}amino)pyrimidin-2-yl]-4-methoxypiperidine-3-carbonitrile]",–,≤ 15 nM,20.1 to 30 nM
"CC(C)c1ccc(N2C[C@H](CS(C)(=O)=O)[C@H]2C)c2cnc(Nc3cnnc(N4CC[C@@](C)(O)[C@@H](F)C4)n3)cc12 (single isomer, unassigned) [Compound 142]",20.1 to 30 nM,≤ 15 nM,–
"CC(C)c1ccc(N2CC(CS(=O)(=O)C3CC3)C2)c2cnc(Nc3ccnc(N4CC[C@@H](O)[C@@](C)(F)C4)n3)cc12 [Compound 170, (3S,4R)-1-{4-[(8-{3-[(cyclopropanesulfonyl)methyl]azetidin-1-yl}-5-(propan-2-yl)isoquinolin-3-yl)amino]pyrimidin-2-yl}-3-fluoro-3-methylpiperidin-4-ol]",≤ 10 nM,≤ 15 nM,–
"CC(C)c1ccc(N2CC(CS(C)(=O)=O)C2)c2cnc(Nc3ccnc(N4CC[C@](C)(O)[C@@](C)(F)C4)n3)cc12 (single isomer, unassigned) [Compound 114, (3S,4S)-3-fluoro-1-[4-({8-[3-(methanesulfonylmethyl)azetidin-1-yl]-5-(propan-2-yl)isoquinolin-3-yl}amino)pyrimidin-2-yl]-3,4-dimethylpiperidin-4-ol or (3R,4R)-3-fluoro-1-[4-({8-[3-(methanesulfonylmethyl)azetidin-1-yl]-5-(propan-2-yl)isoquinolin-3-yl}amino)pyrimidin-2-yl]-3,4-dimethylpiperidin-4-ol]",30.1 to 50 nM,30.1 to 100 nM,–

# More lines, now with the values ahead:
"IC50 [1, 3]",IC50 [2],"IC50 [1, 4]",Molecule
10.1 to 20 nM,≤ 15 nM,–,"COc1ccc(N2CC(CS(C)(=O)=O)C2)c2cnc(Nc3ccnc(N4C[C@@H](F)[C@@H](O)C(C)(C)C4)n3)cc12 (single isomer, unassigned) [Compound 79, (4S,5R)-5-fluoro-1-[4-({8-[3-(methanesulfonylmethyl)azetidin-1-yl]-5-methoxyisoquinolin-3-yl}amino)pyrimidin-2-yl]-3,3-dimethylpiperidin-4-ol or (4R,5S)-5-fluoro-1-[4-({8-[3-(methanesulfonylmethyl)azetidin-1-yl]-5-methoxyisoquinolin-3-yl}amino)pyrimidin-2-yl]-3,3-dimethylpiperidin-4-ol]"
≤ 10 nM,≤ 15 nM,–,"CCS(=O)(=O)CC1CN(c2ccc(C(C)C)c3cc(Nc4ccnc(N5CC[C@@H](O)[C@@](C)(F)C5)n4)ncc23)C1 (single isomer, unassigned) [Compound 110]"
≤ 10 nM,≤ 15 nM,–,"CCS(=O)(=O)C[C@H]1CN(c2ccc(C(C)C)c3cc(Nc4ccnc(N5CC[C@@H](OC)[C@@H](O)C5)n4)ncc23)[C@@H]1C (single isomer, unassigned) [Compound 176, (3S,4R)-1-[4-({8-[(2R,3S)-3-[(ethanesulfonyl)methyl]-2-methylazetidin-1-yl]-5-(propan-2-yl)isoquinolin-3-yl}amino)pyrimidin-2-yl]-4-methoxypiperidin-3-ol, or (3R,4S)-1-[4-({8-[(2R,3S)-3-[(ethanesulfonyl)methyl]-2-methylazetidin-1-yl]-5-(propan-2-yl)isoquinolin-3-yl}amino)pyrimidin-2-yl]-4-methoxypiperidin-3-ol]"
–,≤ 15 nM,≤ 10 nM,"CC(C)c1ccc(N2C[C@H](CS(C)(=O)=O)[C@H]2C)c2cnc(Nc3ccnc(N4CC[C@](F)(CO)C4)n3)cc12 (single isomer, unassigned) [Compound 271, [(3S)-3-fluoro-1-[4-({8-[(2R,3S)-3-(methanesulfonylmethyl)-2-methylazetidin-1-yl]-5-(propan-2-yl)isoquinolin-3-yl}amino)pyrimidin-2-yl]pyrrolidin-3-yl]methanol or [(3R)-3-fluoro-1-[4-({8-[(2R,3S)-3-(methanesulfonylmethyl)-2-methylazetidin-1-yl]-5-(propan-2-yl)isoquinolin-3-yl}amino)pyrimidin-2-yl]pyrrolidin-3-yl]methanol]"
–,≤ 15 nM,10.1 to 20 nM,"CO[C@H]1CCN(c2nccc(Nc3cc4c(C(C)C)cnc(N5CC(C[S@@](C)(=N)=O)[C@H]5C)c4cn3)n2)C[C@H]1F (single isomer, unassigned) [Compound 107, (1S)-(((2R)-1-(6-((2-((3R,4S)-3-fluoro-4-methoxypiperidin-1-yl)pyrimidin-4-yl)amino)-4-isopropyl-2,7-naphthyridin-1-yl)-2-methylazetidin-3-yl)methyl)(imino)(methyl)-λ^6-sulfanone or (1R)-(((2R)-1-(6-((2-((3R,4S)-3-fluoro-4-methoxypiperidin-1-yl)pyrimidin-4-yl)amino)-4-isopropyl-2,7-naphthyridin-1-yl)-2-methylazetidin-3-yl)methyl)(imino)(methyl)-λ^6-sulfanone]"
–,≤ 15 nM,≤ 10 nM,"(R)-ethyl({1-[3-({2-[(3S,4R)-3-fluoro-4-methoxypiperidin-1-yl]pyrimidin-4-yl}amino)-5-(propan-2-yl)isoquinolin-8-yl]azetidin-3-yl}methyl)imino-λ^6-sulfanone or (S)-ethyl({1-[3-({2-[(3S,4R)-3-fluoro-4-methoxypiperidin-1-yl]pyrimidin-4-yl}amino)-5-(propan-2-yl)isoquinolin-8-yl]azetidin-3-yl}methyl)imino-λ^6-sulfanone [Compound 272]"
